Laboratory results reported in US20050234113A1, “Antioxidant and radical scavenging activity of synthetic analogs of desferrithiocin” (University of Florida Research Foundation, Inc., priority 2002, published 2005).
Marks after values point to notes of the source that are not given here.

How the values were obtained:
[1] = Quenching of the ABTS radical cation
[2] = test system: Myeloperoxidase (MPO) activity in colonic tissue; experiment: Myeloperoxidase (MPO) assay in colonic tissue of rats with acetic acid-induced colitis; assay type: in vivo; conditions: 650 μmol kg^−1 intracolonically 30 min before 4% acetic acid, mean ± standard deviation
Procedure: The ligands were administered to the rats intracolonically as a suspension or solution in distilled water (2 mL) at a dose of 650 μmol kg^−1. The drug solutions were made fresh for each experiment. ROWASA®, the pharmaceutical preparation which contains 5-ASA (2 mL, 66.7 mg mL^−1) was given at a dose of 2318 μmol kg^−1. Control rats received distilled water (2 mL), administered intracolonically.
Animal care and experimental procedures were approved by the Institutional Animal Care and Use Committee. Colitis was induced by a modification of published methods. Briefly, the rats were anesthetized with sodium pentobarbital, 55 mg kg^−1 intraperitoneally. The abdomen was shaved and prepared for surgery. A midline incision was made, and the cecum and proximal colon were exteriorized. A reversible suture was placed at the junction of the cecum and proximal colon. The colon was rinsed with saline (10 mL), and the fluid and intestinal contents were gently expressed out the rectum. A gum-based rectal plug was inserted. The compound of interest, or distilled water in the control animals (2 mL), was injected intracolonically just distal to the ligature. The cecum and proximal colon were returned to the abdominal cavity; the compound was allowed to remain in the gut for 30 min. Then, the cecum and proximal colon were reexteriorized. The rectal plug was removed, and the drug was gently expressed out of the colon. Acetic acid (4%, 2 mL) was injected into the proximal colon over a 15-20-second time period. The acid was allowed to remain in the gut until one minute had passed (i.e., 40-45 seconds after the end of the acid administration). The no acid control rats received distilled water (2 mL), which was administered in the same manner as was the acetic acid. Air (10 mL) was then injected into the proximal colon to expel the acid or water. The cecal/proximal colon ligature was removed, the gut was returned to the abdominal cavity, and the incisions were closed. The animals were allowed to recover overnight and were sacrificed 24 hr later. The entire length of the colon was removed and assessed for damage both densitometrically and biochemically.
The activity of MPO was measured in colonic tissue by a modification of the method of Krawisz et al. in Gastroenterology 87, 1344-1350 (1984). Each excised colon was homogenized in 9 volumes of homogenization buffer (0.5% hexadecyltrimethylammonium bromide (HDTMA) in 50 mM sodium acetate, pH 6.0); this homogenate was centrifuged at 1200 g for 20 min at 4° C. A sample of the supernatant (1.8 mL) was transferred into a microcentrifuge tube and stored frozen at −20° C. for up to one week. Prior to assay, the thawed aliquot was centrifuged at about 10,000 g for 15 minutes at 4° C. The final supernatant (33 μL) was added to a solution of o-dianisidine HCl (0.17 mg mL^−1 in 50 mM sodium acetate, pH 6.0, made fresh daily and filtered immediately before use) (950 μL), the mixture was vortexed, and the peroxidase reaction was initiated by the addition of H2O2 to 50 mM sodium acetate, pH 6.0, made fresh daily (16.7 μL). The A470 at room temperature (ca. 23° C.) was read at 15-second intervals for 2 min. The rates were assessed graphically and are presented as change in milliabsorbance units (ΔmAU)/min per g tissue. Under these conditions, 0.1 “Unit” of purified human leukocyte myeloperoxidase (Sigma M-6908) produced a ΔA470 of about 400 mAU/min.
The biochemical measurement involves measuring the level of MPO in a sample of homogenate of the whole rat colon. When the colon is damaged by the acetic acid, there is an extravasation of neutrophils. The extent of this infiltration can serve as a quantitative marker for tissue damage. Although other leukocytes, such as eosinophils and monocytes, also contribute to the inflammatory response, their contribution is small; the majority of the cells recruited during the acute inflammatory response are neutrophils. […]

[3] = Table 1, A734, six-minute reaction, pH 7.4, 1.25 to 15 μM
[4] = Table 3, A734, 6-min reaction, values marked b are the inventors' unpublished results

## O=C(O)[C@H]1CSC(c2ccc(O)cc2O)=N1 [4′-(HO)-DADMDFT, 4′-hydroxydesazadesmethyldesferrithiocin]
[1]; [3]
  Slope × 10^3 OD units/μM (ABTS radical cation quenching): −101.6 × 10^3 OD units/μM
[1]; [4]
  Slope × 10^3 OD units/μM (ABTS radical cation quenching): −102^b × 10^3 OD units/μM
[2]
  MPO activity: 56466 ± 52617 mAU min^−1g of colonic tissue^−1

## CC(=O)N(O)CCCCCNC(=O)CCC(=O)N(O)CCCCCNC(=O)CCC(=O)N(O)CCCCCN [DFO, Desferrioxamine B, reference compound]
[1]; [3]
  Slope × 10^3 OD units/μM (ABTS radical cation quenching): −136.8 × 10^3 OD units/μM
[1]; [4]
  Slope × 10^3 OD units/μM (ABTS radical cation quenching): −137^b × 10^3 OD units/μM
[2]
  MPO activity: 20049 ± 17314 mAU min^−1g of colonic tissue^−1
